These are literature values, as cited in patent publication EP1568762A1, “Detergent tablet compositions and their manufacture” (UNILEVER N.V., priority 2004, dated 2005).

[1] abbreviates: other common materials, by contrast, at 20°C.

Where two headings read alike, the source gives them in different places.

Turning to `O=BO[O-].[Na+]` [Sodium perborate anhydrous], under setting [1], the “Water Solubility (g/100g)” value is given as 3.7 g/100g. As to `O=P(O)(O)OP(=O)(O)OP(=O)(O)O` [Sodium tripolyphosphate anhydrous], the “Water Solubility (g/100g)” value under setting [1] is recorded as 15 g/100g. On to `NC(N)=O` [Urea], for which the “Water Solubility (g/100g)” value (highly water-soluble materials, grams of solid required to form a saturated solution in 100 grams of water at 20°C) is given as greater than 100 g/100g.
